Experimental data reported in article PMC5215716, “A Target-Based Whole Cell Screen Approach To Identify Potential Inhibitors of Mycobacterium tuberculosis Signal Peptidase” (ACS Infectious Diseases, 2016).
Converted amounts (≈) assume the structure as drawn.

These molecules were tested on M. tuberculosis strain expressing LepB under the hsp60 promotor (LepB-OE) (assay: microbe, parasite or virus in culture). Details: Mycobacterium tuberculosis, average ± SD of at least two experiments.
Format: cell-based

Row | Structure (SMILES) | MIC [µM]
1 | C/C(=N\Nc1nc(C)cc(C)n1)c1ccccn1 [Compound 1] | 18 ± 8 (≈ 4.34 µg/mL)
2 | C/C(=N\NC(=O)c1ccc(N2CCCC2=O)cc1)c1ccccn1 [Compound 11] | 5.6 ± 0.6 (≈ 1.81 µg/mL)
3 | C/C(=N\NC(=N)c1ccccn1)c1ccccn1 [Compound 30] | > 200
4 | Oc1ccccc1/C=N/Nc1nc(-c2ccccc2)cs1 [Compound 2] | 160 ± 57 (≈ 47.3 µg/mL)
5 | Cc1cc(C)nc(NN=C(c2ccccc2)c2ccccc2)n1 [Compound 27] | 103 ± 38 (≈ 31.1 µg/mL)
6 | C/C(=N\NC(=O)c1ccoc1C)c1ccccn1 [Compound 39] | 6.5 ± 2.2 (≈ 1.58 µg/mL)
7 | C/C(=N\NC(=O)C1CCCN(S(=O)(=O)c2ccccc2)C1)c1ccccn1 (centres unmarked) [Compound 38] | 9.2 ± 4 (≈ 3.56 µg/mL)
8 | C/C(=N\NC(=O)C1CC1)c1ccccn1 [Compound 40] | 27 ± 2 (≈ 5.49 µg/mL)
